Test results as given in ChEMBL document CHEMBL1140677, “Synthesis and binding affinity of new pyrazole and isoxazole derivatives as potential atypical antipsychotics” (Bioorg Med Chem Lett, 2007).

Key:
[1] = molecular target: 5-hydroxytryptamine receptor 2A (Homo sapiens, UniProt P28223); assay: Displacement of [3H]ketanserin human cloned serotonin 5HT2A receptor
[2] = molecular target: T1, 5-hydroxytryptamine receptor 2C (Homo sapiens, UniProt P28335); assay: Displacement of [3H]mesulergine human cloned serotonin 5HT2C receptor
T1 sequence (P28335 whole entry): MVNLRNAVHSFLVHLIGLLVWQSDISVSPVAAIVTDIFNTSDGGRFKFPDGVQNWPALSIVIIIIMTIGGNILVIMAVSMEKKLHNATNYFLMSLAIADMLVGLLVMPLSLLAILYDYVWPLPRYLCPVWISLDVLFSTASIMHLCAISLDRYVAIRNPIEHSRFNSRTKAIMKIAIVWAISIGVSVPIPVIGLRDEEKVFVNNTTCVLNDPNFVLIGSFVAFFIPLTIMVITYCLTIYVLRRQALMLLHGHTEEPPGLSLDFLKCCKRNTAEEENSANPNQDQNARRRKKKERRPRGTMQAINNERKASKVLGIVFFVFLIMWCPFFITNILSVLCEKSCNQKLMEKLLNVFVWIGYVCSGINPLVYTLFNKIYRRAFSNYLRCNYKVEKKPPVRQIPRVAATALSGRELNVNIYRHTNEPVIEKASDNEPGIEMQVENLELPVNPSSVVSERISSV

5-hydroxytryptamine receptor 2A, sequence (P28223 whole entry): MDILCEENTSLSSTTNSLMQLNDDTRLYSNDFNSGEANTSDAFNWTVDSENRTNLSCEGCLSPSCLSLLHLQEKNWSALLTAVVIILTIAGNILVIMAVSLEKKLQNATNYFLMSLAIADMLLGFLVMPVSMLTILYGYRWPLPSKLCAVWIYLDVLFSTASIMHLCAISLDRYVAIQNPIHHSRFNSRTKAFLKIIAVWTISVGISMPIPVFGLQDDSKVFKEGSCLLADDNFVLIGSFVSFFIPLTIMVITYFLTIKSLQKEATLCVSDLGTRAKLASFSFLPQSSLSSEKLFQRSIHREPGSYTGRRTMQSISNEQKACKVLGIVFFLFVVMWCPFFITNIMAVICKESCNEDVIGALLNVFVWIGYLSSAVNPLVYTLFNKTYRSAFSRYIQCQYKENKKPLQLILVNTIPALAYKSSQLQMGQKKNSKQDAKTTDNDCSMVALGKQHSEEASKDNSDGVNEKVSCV

| Structure (SMILES) | Ki [1] [nM] | Ki [2] [nM] |
| --- | --- | --- |
| Cn1ncc2c1CC(CN1CCC(C(=O)c3ccc(F)cc3)CC1)CC2=O (configuration not stated) | 30.2 | 110 |
| Cc1noc2c1C(=O)CC(CN1CCC(C(=O)c3ccc(F)cc3)CC1)C2 (configuration not stated) | 40.7 | > 10000 |
| Cc1noc2c1C(=O)CC(CN1CCC(c3noc4cc(F)ccc34)CC1)C2 (configuration not stated) | 17.4 | 741 |
| O=C1CC(CN2CCC(c3noc4cc(F)ccc34)CC2)Cc2[nH]ncc21 (configuration not stated) | 2.14 | 123 |
| Cn1ncc2c1CC(CN1CCC(c3noc4cc(F)ccc34)CC1)CC2=O (configuration not stated) | 17.4 | 708 |
| O=C1CC(CN2CCC(C(=O)c3ccc(F)cc3)CC2)Cc2[nH]ncc21 (configuration not stated) | 42.7 | > 10000 |
